Measurements reported in patent US10881110B2, “Herbicidal compositions comprising isoxazolo[5,4-b]pyridines” (BASF SE, priority 2014, dated 2021).

Assays:
Assay in all cases: greenhouse post-emergence herbicidal test
[1] = test system: ABUTH; assay type: in vivo, Abutilon theophrast; conditions: Abutilon theophrasti, post-emergence, 480 h, post emergence; 15 g/ha a.i.; read-out: herbicidal activity against ABUTH found
Outline: (§1)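 Combination activity judged against additive expectation by Colby, E=X+Y−(X·Y/100), from 0–100 damage ratings taken 20 days post-spray. Plants at 1–15 cm in loamy sand (69.9% sand) were sprayed with components formulated as 10% w/w emulsion concentrate in water.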

[2] = test system: ALOMY; assay type: in vivo, Alopecurus myosuroides; design: key to herbicidal activity against ALOMY found: rating on a scale from 0 to 100; conditions: post emergence; for herbicidal activity against ALOMY found: B.95 1 g/ha a.i.
Outline: as §1

[3] = test system: GALAP; assay type: in vivo, Galium aparine; design: key to herbicidal activity against GALAP found: rating on a scale from 0 to 100; conditions: post emergence
Outline: (§2)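 Herbicidal activity scored on a 0 (no damage) to 100 (plants destroyed) scale, usually 20 days after water-based spraying of 1–15 cm plants grown in loamy sand at 10-25 °C or 20-35 °C depending on species. Components were applied from 10% emulsion concentrates; Colby's E=X+Y−(X·Y/100) gives the additive expectation.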

[4] = test system: GERDI; assay type: in vivo, Geranium dissectum; design: key to herbicidal activity against GERDI found: rating on a scale from 0 to 100; conditions: post emergence
Outline: as §1

[5] = test system: IPOHE; assay type: in vivo, Ipomoea hederacea; design: key to herbicidal activity against IPOHE found: rating on a scale from 0 to 100; conditions: post emergence
Outline: as §2

[6] = test system: MATCH; assay type: in vivo, Matricaria recutita; design: key to herbicidal activity against MATCH found: rating on a scale from 0 to 100; conditions: post emergence
Outline: as §1

[7] = test system: STEME; assay type: in vivo, Stellaria media; design: key: scale 0 to 100
Experimental: (§3) The culture containers used were plastic pots containing medium loamy sand with approximately 4.6% of humus and 69.9% sand as substrate. The seeds of the test plants were sown separately for each species.
(§4) For the post-emergence treatment, the test plants were grown to a plant height of from 1 to 15 cm, depending on the plant habit, and only then treated with the active compounds which had been suspended or emulsified in water. To this end, the test plants were either sown directly, and grown in the same containers, or they were first grown separately as seedlings and transplanted into the test containers a few days prior to treatment.
(§5) Depending on the species, the plants were kept at 10-25° C. and 20-35° C., respectively.
(§6) The test period extended over 1 to 3 weeks. During this time, the plants were tended and their response to the individual treatments was evaluated 20 days after treatment except mentioned otherwise.
(§7) Evaluation was carried out using a scale from 0 to 100. 100 means no emergence of the plants, or complete destruction of at least the above-ground parts, and 0 means no damage or normal course of growth.
(§8) The respective stated components A and B, and, if appropriate, C, were formulated as a 10% by weight strength emulsion concentrate and, with addition of the amount of solvent system, introduced into the spray liquor used for applying the active compound. In the examples, the solvent used was water.
(§9) In the examples below, using the method of S. R. Colby (1967) “Calculating synergistic and antagonistic responses of herbicide combinations”, Weeds 15, p. 22 ff., the value E, which is expected if the activity of the individual active compounds is only additive, was calculated. E=X+Y−(X·Y/100)

[8] = test system: APESV; assay type: in vivo, Apera spica-venti; design: key to herbicidal activity against APESV found: rating on a scale from 0 to 100; conditions: post emergence, B.95 1 g/ha a.i.
Outline: as §1

[9] = test system: ECHCG; assay type: in vivo, Echinochloa crus-galli; design: key to herbicidal activity against ECHCG found / herbicidal activity against ECHCH found: scale 0 to 100; conditions: post emergence
Experimental: as §3, §4, §5, §6, §7, §8, §9

[10] = test system: ERICA; assay type: in vivo, Conyza canadensis; design: key to herbicidal activity against ERICA found: rating on a scale from 0 to 100; conditions: post emergence
Outline: as §1

[11] = test system: PAPRH; assay type: in vivo, Papaver rhoeas; design: key: rating on a scale from 0 to 100
Experimental: as §3, §4, §5, §6, §7, §8, §9

[12] = test system: KCHSC; assay type: in vivo, Kochia scoparia; design: key to herbicidal activity against KCHSC found: rating on a scale from 0 to 100; conditions: post emergence
Outline: as §2

[13] = test system: POLCO; assay type: in vivo, Polygonum convolvulus; design: key to herbicidal activity against POLCO found: rating on a scale from 0 to 100; conditions: post emergence
Outline: as §2

[14] = I.1 15.62 g/ha, B.95 1 g/ha a.i.
[15] = I.1 62.5 g/ha, B.95 2 g/ha a.i.
[16] = I.1 31.25 g/ha, B.95 1 g/ha a.i.
[17] = I.1 31.25 g/ha, B.95 2 g/ha a.i.
[18] = I.1 62.5 g/ha, B.95 1 g/ha a.i.
[19] = I.1 31.25 g/ha, B.103 7.5 g/ha a.i.
[20] = I.1 31.25 g/ha, B.103 15 g/ha a.i.
[21] = I.1 62.5 g/ha, B.103 7.5 g/ha a.i.
[22] = I.1 62.5 g/ha, B.103 15 g/ha a.i.
[23] = I.1 15.6 g/ha, B.103 7.5 g/ha a.i.
[24] = I.1 15.62 g/ha, B.103 15 g/ha a.i.

With `C#CCOC(=O)[C@@H](C)Oc1ccc(Oc2ncc(Cl)cc2F)cc1` [B.2, clodinafop-propargyl] the pest or weed control at 15 g/ha [1] was 15%, the pest or weed control at 15 g/ha ([2]; Alopecurus myosuroides, post-emergence, 480 h, 15 g/ha a.i., read-out: herbicidal activity against ALOMY found) was 85% and the pest or weed control at 7.5 g/ha ([3]; Galium aparine, post-emergence, 480 h, 7.5 g/ha a.i., read-out: herbicidal activity against GALAP found) was 0%. It also gave a pest or weed control at 7.5 g/ha ([4]; Geranium dissectum, post-emergence, 480 h, 7.5 g/ha a.i., read-out: herbicidal activity against GERDI found) of 0%, a pest or weed control at 7.5 g/ha ([5]; Ipomoea hederacea, post-emergence, 480 h, 7.5 g/ha a.i., read-out: herbicidal activity against IPOHE found) of 10% and a pest or weed control at 15 g/ha ([5]; Ipomoea hederacea, post-emergence, 480 h, 15 g/ha a.i., read-out: herbicidal activity against IPOHE found) of 40%. The pest or weed control at 15 g/ha ([6]; Matricaria chamomilla, post-emergence, 480 h, 15 g/ha a.i., read-out: herbicidal activity against MATCH found) was 0% and the “herbicidal activity against STEME found” value ([7]; 7.5 g/ha a.i.) was 0.

`C#CCN1C(=O)C(F)(F)Oc2cc(F)c(-n3c(=O)n(C)c(=S)n(C)c3=O)cc21` [B.95, trifludimoxazin] was tested, and the “herbicidal activity against ALOMY found” value ([2]; I.1 31.25 g/ha) was 25, the “herbicidal activity against ALOMY found” value ([2]; I.1 62.5 g/ha) was 25 and the “herbicidal activity against APESV found” value ([8]; I.1 15.62 g/ha) was 30. For the same compound, the “herbicidal activity against APESV found” value ([8]; I.1 62.5 g/ha) was 30, the “herbicidal activity against ECHCG found” value [9, 14] was 25 and the “herbicidal activity against ECHCG found” value [9, 15] was 45. The “herbicidal activity against ERICA found” value [10, 14] was 40, the “herbicidal activity against ERICA found” value ([10]; I.1 15.62 g/ha, B.95 2 g/ha a.i.) was 45 and the “herbicidal activity against ERICA found” value [10, 16] was 40. The “herbicidal activity against ERICA found” value [10, 17] was 45, the “herbicidal activity against ERICA found” value [10, 18] was 40 and the “herbicidal activity against ERICA found” value [10, 15] was 45. For the same compound, the “herbicidal activity against GALAP found” value [3, 16] was 75, the “herbicidal activity against GALAP found” value [3, 17] was 75 and the “herbicidal activity against GALAP found” value [3, 15] was 75. The “herbicidal activity against GERDI found” value [4, 18] was 65, the “herbicidal activity against GERDI found” value [4, 15] was 65 and the “herbicidal activity against MATCH found” value [6, 14] was 30. For the same compound, the “herbicidal activity against MATCH found” value [6, 16] was 30, the “herbicidal activity against MATCH found” value [6, 17] was 65 and the “herbicidal activity against MATCH found” value [6, 15] was 65. For the same compound, the “herbicidal activity against PAPRH found” value [11, 16] was 35 and the “herbicidal activity against PAPRH found” value [11, 18] was 35.

With `O=C(Nc1ccc(F)cc1)c1cccc(Oc2cccc(C(F)(F)F)c2)n1` [B.103, picolinafen] the “herbicidal activity against ECHCG found” value [9, 19] was 20, the “herbicidal activity against ERICA found” value [10, 20] was 65 and the “herbicidal activity against ERICA found” value [10, 21] was 25. For the same compound, the “herbicidal activity against ERICA found” value [10, 22] was 65, the “herbicidal activity against GALAP found” value [3, 21] was 70 and the “herbicidal activity against GERDI found” value [4, 23] was 0. The “herbicidal activity against GERDI found” value [4, 19] was 0, the “herbicidal activity against GERDI found” value [4, 20] was 0 and the “herbicidal activity against GERDI found” value [4, 21] was 0. For the same compound, the “herbicidal activity against GERDI found” value [4, 22] was 0, the “herbicidal activity against IPOHE found” value [5, 23] was 40 and the “herbicidal activity against IPOHE found” value [5, 20] was 60. The “herbicidal activity against KCHSC found” value [12, 19] was 60, the “herbicidal activity against KCHSC found” value [12, 20] was 60 and the “herbicidal activity against KCHSC found” value [12, 21] was 60. For the same compound, the “herbicidal activity against KCHSC found” value [12, 22] was 60, the “herbicidal activity against PAPRH found” value [11, 24] was 70 and the “herbicidal activity against PAPRH found” value [11, 20] was 70. For the same compound, the “herbicidal activity against POLCO found” value [13, 23] was 40, the “herbicidal activity against POLCO found” value [13, 21] was 40 and the “herbicidal activity against POLCO found” value [13, 22] was 70. For the same compound, the “herbicidal activity against STEME found” value [7, 24] was 65.
